Results as given in PubChem BioAssay (NCI).
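Each compound was tested at five concentrations against cells in 96-well plates for 48 hours. GI50 is the concentration that inhibits growth by half. TGI: total growth inhibition.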

How the values were obtained:
Experiment in all cases: NCI anticancer screen, dose series, 48 h
[1] = system: ACHN renal
[2] = system: TK-10 renal
[3] = system: HS 578T breast
[4] = system: 786-0 renal
[5] = system: SK-OV-3 ovarian
[6] = system: OVCAR-5 ovarian
[7] = system: A549 NSCLC
[8] = system: HL-60(TB) leukemia

Row | Structure (SMILES) | GI50 [1] | TGI [1] | GI50 [2] | TGI [2] | GI50 [3] | TGI [3] | GI50 [4] | TGI [4] | GI50 [5] | TGI [5] | GI50 [6] | TGI [6] | GI50 [7] | TGI [7] | GI50 [8] | TGI [8]
1 | N/C(=N/S(=O)(=O)c1cc(C(=O)Nc2ccc(F)cc2)c(Cl)cc1SCc1ccccc1)Nc1ccccc1O | 18.9 µM | > 100 µM | 2.8 µM | 8.61 µM | 1.72 µM | 3.8 µM | 2.3 µM | 6.01 µM | 2.06 µM | 4.2 µM | 16.4 µM | 31.3 µM | 2.36 µM | 4.71 µM | – | –
2 | Nc1nc(N)c(-c2ccc(Cl)c(Cl)c2)c(CP(Cl)(Cl)(Cl)Br)n1 | 6.63 µM | > 100 µM | 29.6 µM | > 100 µM | 24.4 µM | > 100 µM | 14.6 µM | > 100 µM | 86.7 µM | > 100 µM | 6.96 µM | > 100 µM | 5.37 µM | > 100 µM | 4.07 µM | 31.6 µM
3 | CC(=O)/C=C/c1ccc(N(CCO)Cc2ccc(C(C)(C)C)cc2)cc1 | 50.1 µM | 170 µM | 112 µM | 237 µM | 80 µM | 297 µM | 51.3 µM | 184 µM | 121 µM | 248 µM | 63.3 µM | 211 µM | 56.5 µM | 182 µM | 24.9 µM | 66.8 µM
4 | CCSCCCC(=O)O | – | > 100 µM | – | > 100 µM | – | > 100 µM | – | > 100 µM | – | > 100 µM | – | > 100 µM | – | > 100 µM | – | > 100 µM
5 | OCC1OC(n2cnc3c(NCc4ccccc4O)ncnc32)C(O)C1O (centres undefined) | 0.327 µM | > 44.4 µM | 0.322 µM | > 52.6 µM | 1.96 µM | > 58.6 µM | 0.571 µM | 7.7 µM | 0.627 µM | 26.1 µM | 1.15 µM | > 67.1 µM | 26.5 µM | > 100 µM | 0.228 µM | 0.92 µM
6 | Nc1cc(N)c2nc(-c3ccccc3)c(NCc3ccc(Cl)c(Cl)c3)nc2c1 | – | – | 12.8 µM | 30.5 µM | 5.9 µM | 46.7 µM | 13.1 µM | 30.4 µM | 18.5 µM | 35.9 µM | 23.8 µM | 40.7 µM | 10.8 µM | 27.4 µM | 1.82 µM | 7.94 µM
7 | Cc1ccc(NC2=CC(=O)C(=O)c3ccccc32)cc1 | 1.92 µM | 5.33 µM | 2.83 µM | 11 µM | 2.54 µM | 7.26 µM | 15 µM | > 100 µM | 11.3 µM | 23.5 µM | 1.9 µM | 3.54 µM | 1.72 µM | 3.68 µM | 2.77 µM | > 100 µM
8 | CC(C)(C)OC(=O)N1Cc2cc3ccccc3nc2C1CO (centres undefined) | > 100 µM | > 100 µM | > 100 µM | > 100 µM | > 100 µM | > 100 µM | > 100 µM | > 100 µM | > 100 µM | > 100 µM | > 100 µM | > 100 µM | > 100 µM | > 100 µM | > 100 µM | > 100 µM
9 | CCOC(=O)c1ccc(NC(=O)c2cccc(NC3=C(Cl)C(=O)N(Cc4ccccc4)C3=O)c2)cc1 | > 100 µM | > 100 µM | > 100 µM | > 100 µM | > 100 µM | > 100 µM | > 100 µM | > 100 µM | > 100 µM | > 100 µM | – | – | > 100 µM | > 100 µM | 17.2 µM | 45.9 µM
10 | CCOC(=O)c1cc2c(n1Cc1ccccc1OC)-c1oncc1CCC2 | 16.6 µM | > 100 µM | 67.8 µM | > 100 µM | 3.38 µM | > 100 µM | > 100 µM | > 100 µM | 2.7 µM | 19.7 µM | > 100 µM | > 100 µM | – | – | 3.04 µM | > 100 µM
11 | Nc1ncnc2c1ncn2CCCCC(=O)O | – | > 100 µM | – | > 100 µM | – | > 100 µM | – | > 100 µM | – | > 100 µM | – | > 100 µM | – | > 100 µM | – | –
12 | O=C(Nc1ccc(Cl)cc1)N1CCN(c2ccc3nncn3n2)CC1 | 50.6 µM | > 100 µM | 43 µM | > 100 µM | > 100 µM | > 100 µM | > 100 µM | > 100 µM | > 100 µM | > 100 µM | > 100 µM | > 100 µM | – | – | 29.8 µM | > 100 µM
13 | NCCCNc1nc2ccccc2c2c(=O)c3cc(F)cc(Cl)c3sc12 | 1.7 µM | 3.07 µM | 1.91 µM | 3.39 µM | 1.68 µM | 3.62 µM | 1.45 µM | 2.9 µM | – | – | 1.65 µM | 3.1 µM | 1.8 µM | 3.55 µM | 2.45 µM | 6.58 µM
14 | CCS(=O)(=O)N1CCN(c2ccc(Nc3ncc(C(N)=O)c(NC4CC4)n3)cc2)CC1 | 12.5 µM | 82.8 µM | 9.19 µM | 32.2 µM | 10.9 µM | 57.3 µM | 5.31 µM | > 100 µM | 7.93 µM | 26.3 µM | 36.8 µM | > 100 µM | 19 µM | > 100 µM | – | –
15 | CCOP(=O)(OCC)C(NC(c1ccccc1)c1ccccc1)c1ccc(C(C)C)cc1 (centres undefined) | 2.64 µM | 7.27 µM | 3.32 µM | 14.4 µM | – | – | 5.6 µM | 18.9 µM | 13.2 µM | 34.7 µM | – | – | 4.84 µM | 23.2 µM | – | –
16 | O=C(c1ccc(Nc2nccc(NCCCCNc3ccnc4cc(Cl)ccc34)n2)cc1)N1CCCCC1 | 3.32 µM | 11.3 µM | 2.16 µM | 4.83 µM | 1.8 µM | 4.62 µM | 1.46 µM | 2.82 µM | 5.45 µM | 18 µM | 4.32 µM | 25.9 µM | 1.3 µM | 11.9 µM | – | –
17 | CCCCNCCCCCNc1cc(OC)cc2cccnc12 | 45.3 µM | > 100 µM | 23.4 µM | 44.5 µM | 21.7 µM | 47.9 µM | 14.6 µM | 28.2 µM | 18.4 µM | 35.9 µM | 15.1 µM | 30.9 µM | 20.7 µM | 51.3 µM | – | –
18 | COc1cc(NCCC2CCCCN2)c2ncccc2c1OC (centres undefined) | 21.2 µM | 89.9 µM | 22.1 µM | 39.7 µM | 4.34 µM | 31.1 µM | 14.5 µM | 36.9 µM | 20.3 µM | 38.9 µM | 19.1 µM | 62.7 µM | 19.4 µM | 41.9 µM | – | –
19 | O=C(Nc1cc2cc([N+](=O)[O-])ccc2oc1=O)c1cccs1 | – | > 100 µM | – | > 100 µM | – | > 100 µM | – | > 100 µM | – | – | – | > 100 µM | – | > 100 µM | – | 44.5 µM
20 | C=C1C(=O)O[C@H]2[C@H]1CC/C(COC(=O)N[C@H](Cc1c[nH]c3ccccc13)C(=O)OC)=C\CC[C@@]1(C)O[C@@H]21 | 1.78 µM | 4.22 µM | 2.1 µM | 5.07 µM | 12.6 µM | 44.2 µM | 1.28 µM | 2.95 µM | 13.4 µM | 26.4 µM | 3.25 µM | 13.8 µM | 14.9 µM | 32.7 µM | – | –
21 | Cc1ccc(/C(=C/C=C(C#N)C#N)Sc2nc3ccccc3s2)cc1 | – | – | 2.42 µM | 6.37 µM | 9.86 µM | 56.1 µM | 2.43 µM | 6.78 µM | 14.1 µM | 30 µM | 24.1 µM | 42.1 µM | 19.8 µM | 45.5 µM | 7.02 µM | > 100 µM
22 | O=C(O)c1cc(Cl)cc(Cc2cc(Cl)cc(C(=O)O)c2O)c1O | – | > 100 µM | – | > 100 µM | – | > 100 µM | – | > 100 µM | – | > 100 µM | – | > 100 µM | – | > 100 µM | – | –
23 | COc1ccc(C(Nc2ccccn2)c2cc(C(C)(C)C)cc(C(C)(C)C)c2O)cc1 (centres undefined) | – | > 100 µM | – | > 100 µM | – | > 100 µM | – | > 100 µM | – | > 100 µM | – | > 100 µM | – | > 100 µM | – | –
24 | C=C1C(O)C2CC(C)(C)C(=O)C2=C(CC(C)C)C12CC2 (centres undefined) | > 100 µM | > 100 µM | > 100 µM | > 100 µM | > 100 µM | > 100 µM | > 100 µM | > 100 µM | > 100 µM | > 100 µM | > 100 µM | > 100 µM | > 100 µM | > 100 µM | – | –
25 | Oc1ccc(/C=N/NC(=S)Nc2cccnc2)nc1 | – | 32.3 µM | – | > 25.7 µM | – | – | – | > 73.5 µM | – | > 100 µM | – | > 100 µM | – | > 100 µM | – | 14.4 µM
26 | CC(=N/NC(N)=S)/C(C)=N/NC(N)=S | – | > 100 µM | – | > 100 µM | – | > 100 µM | – | > 100 µM | – | – | – | > 100 µM | – | > 100 µM | – | > 100 µM
27 | Oc1cc(O)c2c(c1)OC(c1ccc(O)c(O)c1)C(O)C2c1c(O)cc(O)c2c1OC(c1ccc(O)c(O)c1)C(O)C2 (centres undefined) | – | > 100 µM | – | > 100 µM | – | > 100 µM | – | > 100 µM | – | > 100 µM | – | > 100 µM | – | > 100 µM | – | –
